Data from article PMC10648586, “Jasmone Is a Ligand-Selective Allosteric Antagonist of Aryl Hydrocarbon Receptor (AhR)” (International Journal of Molecular Sciences, 2023).

Molecular target: T1, mouse AhR (mAhr) (Mus musculus, UniProt P30561)
T1 construct: cytosolic protein from Hepa1c1c7 cells
T1 sequence (P30561 10-848): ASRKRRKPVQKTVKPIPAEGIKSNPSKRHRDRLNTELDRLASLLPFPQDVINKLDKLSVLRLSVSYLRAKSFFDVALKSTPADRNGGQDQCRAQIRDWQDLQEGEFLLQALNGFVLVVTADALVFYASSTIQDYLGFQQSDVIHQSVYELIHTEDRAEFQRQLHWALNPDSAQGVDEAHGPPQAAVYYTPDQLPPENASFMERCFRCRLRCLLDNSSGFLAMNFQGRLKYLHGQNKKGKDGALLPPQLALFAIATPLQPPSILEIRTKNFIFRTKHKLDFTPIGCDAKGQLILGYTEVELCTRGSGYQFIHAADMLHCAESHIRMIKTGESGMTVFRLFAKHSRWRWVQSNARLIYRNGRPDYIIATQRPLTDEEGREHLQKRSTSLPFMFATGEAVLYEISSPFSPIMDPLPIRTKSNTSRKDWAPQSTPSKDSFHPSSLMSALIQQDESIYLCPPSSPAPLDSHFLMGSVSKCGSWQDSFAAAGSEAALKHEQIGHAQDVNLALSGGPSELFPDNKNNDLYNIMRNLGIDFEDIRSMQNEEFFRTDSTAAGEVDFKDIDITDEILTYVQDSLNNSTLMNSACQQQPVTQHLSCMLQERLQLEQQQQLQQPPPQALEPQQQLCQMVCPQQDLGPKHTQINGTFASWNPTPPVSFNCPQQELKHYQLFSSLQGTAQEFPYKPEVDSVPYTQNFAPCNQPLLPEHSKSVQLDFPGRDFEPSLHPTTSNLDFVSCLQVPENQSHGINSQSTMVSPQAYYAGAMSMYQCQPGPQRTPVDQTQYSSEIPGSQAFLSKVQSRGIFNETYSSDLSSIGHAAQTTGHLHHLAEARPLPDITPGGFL
Experiment: [3H]-TCDD competitive radioligand binding; partial displacement (about […]) at […]

SMILES: CC/C=C\CC1=C(C)CCC1=O [jasmone, 3-methyl-2-[(2Z)-pent-2-en-1-yl]cyclopent-2-en-1-one]
- IC50: > 609 µM
